Measured values taken from ChEMBL document CHEMBL2177022, “Novel acidic 11β-hydroxysteroid dehydrogenase type 1 (11β-HSD1) inhibitor with reduced acyl glucuronide liability: the discovery of 4-[4-(2-adamantylcarbamoyl)-5-tert-butyl-pyrazol-1-yl]benzoic acid (AZD8329)” (J Med Chem, 2012).
Activity calls are given as the source filed them. The calls are words filed in the database; no cut-off is given here.

Columns and labels:
Rattus norvegicus [1] = assay: Inhibition of 11betaHSD1 in lean Han Wistar rat adipose tissue assessed as reduction in assessed as [3H]cortisone to [3H]cortisol conversion at 10 mg/kg, po measured 3 hrs post dose; format: functional, organism-based; set-up: dose 10 mg/kg
Rattus norvegicus [2] = assay: Inhibition of 11betaHSD1 in lean Han Wistar rat liver assessed as reduction in assessed as [3H]cortisone to [3H]cortisol conversion at 3 mg/kg, po measured 3 hrs post dose; format: functional
[3] = molecular target: T1, 11-beta-hydroxysteroid dehydrogenase 1 (Homo sapiens, UniProt P28845); assay: Inhibition of 11betaHSD1 in human adipocytes assessed as cortisone to cortisol conversion by scintillation counting method; format: cell-based
[4] = Inhibition of N-terminal 6-His tagged full length cynomolgus monkey 11betaHSD1 incubated for 25 mins by HTRF assay; set-up: species or system Macaca fascicularis
[5] = Inhibition of N-terminal 6-His tagged full length dog 11betaHSD1 incubated for 25 mins by HTRF assay; set-up: species or system Canis lupus familiaris
[6] = molecular target: 11-beta-hydroxysteroid dehydrogenase 1 (Rattus norvegicus, UniProt P16232); assay: Inhibition of N-terminal 6-His tagged full length rat 11betaHSD1 incubated for 25 mins by HTRF assay
[7] = molecular target: 11-beta-hydroxysteroid dehydrogenase 1 (Mus musculus, UniProt P50172); assay: Inhibition of N-terminal 6-His tagged full length mouse 11betaHSD1 incubated for 25 mins by HTRF assay
Cavia porcellus = assay: Toxicity in anesthetized guinea pig monophasic action potential model assessed as ventricular repolarization; format: organism-based, Cardiac ventricle; conditions: in vivo
L5178Y = assay: Genotoxicity in mouse L5178Y cells; format: toxicity, cell-based
[8] = molecular target: Mineralocorticoid receptor (Homo sapiens) (UniProt P08235); assay: Inhibition of mineralocorticoid receptor
Salmonella typhimurium = assay: Genotoxicity in Salmonella typhimurium by Ames test; format: toxicity, organism-based; conditions: salmonella enterica subsp. enterica serovar typhimurium
[9] = molecular target: Glucocorticoid receptor (Homo sapiens) (UniProt P04150); assay: Inhibition of glucocorticoid receptor
[10] = molecular target: 17-beta-hydroxysteroid dehydrogenase type 3 (Homo sapiens) (UniProt P37058); assay: Inhibition of 17beta-HSD3 assessed as conversion of androstenedione to testosterone at 10 uM by scintillation counting method
[11] = molecular target: 17-beta-hydroxysteroid dehydrogenase type 1 (Homo sapiens, UniProt P14061); assay: Inhibition of 17beta-HSD1 assessed as conversion of estrone to estradiol by scintillation counting method
[12] = molecular target: 11-beta-hydroxysteroid dehydrogenase type 2 (Homo sapiens, UniProt P80365); assay: Inhibition of 11beta-HSD2 assessed as conversion of cortisol to cortisone by fluorescence based assay
[13] = Drug metabolism in bile duct cannulated rat urine assessed as oxidative metabolism level during 0 to 6 hrs post dose by metabolism-ID study; format: ADME, tissue-based; conditions: in vivo
[14] = Drug metabolism in bile duct cannulated rat bile assessed as oxidative metabolism level during 0 to 6 hrs post dose by metabolism-ID study; format: ADME; conditions: in vivo
[15] = Stability in bile duct cannulated rat urine assessed as parent compound remaining measured during 0 to 6 hrs post dose; format: ADME, tissue-based; conditions: in vivo
[16] = Stability in bile duct cannulated rat bile assessed as parent compound remaining measured during 0 to 6 hrs post dose; format: ADME; conditions: in vivo
[17] = Drug metabolism in dog hepatocytes assessed as oxidative metabolism level by metabolism-ID study; format: ADME, cell-based, Canis lupus familiaris, Hepatocyte
Hepatocyte [18] = assay: Stability in rat hepatocytes assessed as parent compound remaining; format: ADME, cell-based
[19] = Stability in dog hepatocytes assessed as parent compound remaining; format: ADME, cell-based, Canis lupus familiaris, Hepatocyte
Hepatocyte [20] = assay: Stability in human hepatocytes assessed as parent compound remaining; format: ADME, cell-based
Liver microsomes = assay: Stability in human liver microsomes assessed as oxidative metabolism-mediated generation of reactive metabolites; format: ADME, Microsome
Rattus norvegicus [21] = assay: Renal clearance in rat at 1 and 3 mg/kg relative to total clearance; format: ADME, organism-based, Kidney; set-up: dose 3 mg/kg; conditions: in vivo
Canis familiaris = assay: Renal clearance in dog at 1 and 3 mg/kg relative to total clearance; format: ADME, organism-based, Canis lupus familiaris, Kidney; set-up: dose 3 mg/kg; conditions: in vivo
[22] = Oral bioavailability in rat at 1 and 3 mg/kg; format: ADME, organism-based; conditions: in vivo
[23] = Oral bioavailability in dog at 1 and 3 mg/kg; format: ADME, organism-based, Canis lupus familiaris; conditions: in vivo
[24] = Oral bioavailability in mouse at 1 and 3 mg/kg; format: ADME, organism-based; conditions: in vivo
[25] = Half life in mouse at 1 and 3 mg/kg, po; format: ADME, organism-based; set-up: dose 3 mg/kg, route oral; conditions: in vivo
[26] = Half life in rat at 1 and 3 mg/kg, po; format: ADME, organism-based; set-up: dose 3 mg/kg, route oral; conditions: in vivo
[27] = Half life in dog at 1 and 3 mg/kg, po; format: ADME, organism-based, Canis lupus familiaris; set-up: dose 3 mg/kg, route oral; conditions: in vivo
[28] = Half life in rat at 1 and 3 mg/kg, iv; format: ADME, organism-based; set-up: dose 3 mg/kg, route intravenous; conditions: in vivo
[29] = Half life in dog at 1 and 3 mg/kg, iv; format: ADME, organism-based, Canis lupus familiaris; set-up: dose 3 mg/kg, route intravenous; conditions: in vivo
[30] = Volume of distribution at steady state in dog at 1 and 3 mg/kg; format: ADME, organism-based, Canis lupus familiaris; set-up: dose 3 mg/kg; conditions: in vivo, read-out: Vdss
[31] = Half life in mouse at 1 and 3 mg/kg, iv; format: ADME, organism-based; set-up: dose 3 mg/kg, route intravenous; conditions: in vivo
[32] = Volume of distribution at steady state in rat at 1 and 3 mg/kg; format: ADME, organism-based; set-up: dose 3 mg/kg; conditions: in vivo, read-out: Vdss
[33] = Volume of distribution at steady state in mouse at 1 and 3 mg/kg; format: ADME, organism-based; set-up: dose 3 mg/kg; conditions: in vivo, read-out: Vdss
[34] = Plasma clearance in dog at 1 and 3 mg/kg; format: ADME, organism-based, Canis lupus familiaris; set-up: dose 3 mg/kg
[35] = Plasma clearance in mouse at 1 and 3 mg/kg; format: ADME, organism-based; set-up: dose 3 mg/kg
[36] = Plasma clearance in rat at 1 and 3 mg/kg; format: ADME, organism-based; set-up: dose 3 mg/kg
[37] = Apparent permeability from basolateral to apical side in MDCK cells at 10 uM; format: ADME, cell-based, Canis lupus familiaris; conditions: dog
[38] = Percentage unbound in human plasma at 37 degC by equilibrium dialysis method; format: ADME, cell-free
[39] = Apparent permeability from apical to basolateral side in MDCK cells at 10 uM; format: ADME, cell-based, Canis lupus familiaris; conditions: dog
[40] = Percentage unbound in mouse plasma at 37 degC by equilibrium dialysis method; format: ADME, cell-free
[41] = Percentage unbound in dog plasma at 37 degC by equilibrium dialysis method; format: ADME, cell-free, Canis lupus familiaris
CYP2C9 = CYP2C9 (Homo sapiens, UniProt P11712); assay: Inhibition of CYP2C9 at 10 uM; format: ADME
CYP2C19 = CYP2C19 (Homo sapiens, UniProt P33261); assay: Inhibition of CYP2C19 at 10 uM; format: ADME
CYP2D6 = CYP2D6 (Homo sapiens, UniProt P10635); assay: Inhibition of CYP2D6 at 10 uM; format: ADME
CYP1A2 = CYP1A2 (Homo sapiens, UniProt P05177); assay: Inhibition of CYP1A2 at 10 uM; format: ADME
[42] = Oral bioavailability in rat; format: ADME, organism-based; conditions: in vivo
CYP3A4 = CYP3A4 (Homo sapiens, UniProt P08684); assay: Inhibition of CYP3A4 at 10 uM; format: ADME
[43] = Aqueous solubility in pH 7.4 phosphate buffer at 25 degC incubated for 24 hrs; format: physicochemical
[44] = Intrinsic clearance in rat hepatocytes assessed per 10^6 cells
[45] = Percentage unbound in rat plasma at 37 degC by equilibrium dialysis method; format: ADME, cell-free
[46] = Lipophilicity, log D at pH 7.4 by shake flask method; conditions: buffer
[47] = molecular target: T1, 11-beta-hydroxysteroid dehydrogenase 1
Description: Inhibition of N-terminal 6-His tagged full length human 11betaHSD1 incubated for 25 mins by HTRF assay

in vivo = conditions: rat

T1 sequence (P28845 whole entry): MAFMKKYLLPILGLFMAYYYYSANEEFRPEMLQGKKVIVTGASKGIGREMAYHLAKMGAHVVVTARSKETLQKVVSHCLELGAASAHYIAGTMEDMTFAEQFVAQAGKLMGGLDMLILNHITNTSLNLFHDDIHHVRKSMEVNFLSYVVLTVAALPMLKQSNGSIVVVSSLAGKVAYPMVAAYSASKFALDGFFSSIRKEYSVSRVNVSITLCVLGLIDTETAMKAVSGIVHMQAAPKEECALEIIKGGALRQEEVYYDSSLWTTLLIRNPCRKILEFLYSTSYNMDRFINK
17-beta-hydroxysteroid dehydrogenase type 3 (Homo sapiens), sequence (P37058 whole entry): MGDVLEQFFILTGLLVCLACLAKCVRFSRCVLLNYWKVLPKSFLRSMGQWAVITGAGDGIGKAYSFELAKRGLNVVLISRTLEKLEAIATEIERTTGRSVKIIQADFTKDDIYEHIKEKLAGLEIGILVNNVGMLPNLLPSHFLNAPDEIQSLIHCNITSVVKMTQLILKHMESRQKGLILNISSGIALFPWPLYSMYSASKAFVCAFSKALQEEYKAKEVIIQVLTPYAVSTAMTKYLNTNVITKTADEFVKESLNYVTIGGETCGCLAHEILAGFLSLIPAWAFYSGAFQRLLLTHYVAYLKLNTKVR
Mineralocorticoid receptor (Homo sapiens), sequence (P08235 whole entry): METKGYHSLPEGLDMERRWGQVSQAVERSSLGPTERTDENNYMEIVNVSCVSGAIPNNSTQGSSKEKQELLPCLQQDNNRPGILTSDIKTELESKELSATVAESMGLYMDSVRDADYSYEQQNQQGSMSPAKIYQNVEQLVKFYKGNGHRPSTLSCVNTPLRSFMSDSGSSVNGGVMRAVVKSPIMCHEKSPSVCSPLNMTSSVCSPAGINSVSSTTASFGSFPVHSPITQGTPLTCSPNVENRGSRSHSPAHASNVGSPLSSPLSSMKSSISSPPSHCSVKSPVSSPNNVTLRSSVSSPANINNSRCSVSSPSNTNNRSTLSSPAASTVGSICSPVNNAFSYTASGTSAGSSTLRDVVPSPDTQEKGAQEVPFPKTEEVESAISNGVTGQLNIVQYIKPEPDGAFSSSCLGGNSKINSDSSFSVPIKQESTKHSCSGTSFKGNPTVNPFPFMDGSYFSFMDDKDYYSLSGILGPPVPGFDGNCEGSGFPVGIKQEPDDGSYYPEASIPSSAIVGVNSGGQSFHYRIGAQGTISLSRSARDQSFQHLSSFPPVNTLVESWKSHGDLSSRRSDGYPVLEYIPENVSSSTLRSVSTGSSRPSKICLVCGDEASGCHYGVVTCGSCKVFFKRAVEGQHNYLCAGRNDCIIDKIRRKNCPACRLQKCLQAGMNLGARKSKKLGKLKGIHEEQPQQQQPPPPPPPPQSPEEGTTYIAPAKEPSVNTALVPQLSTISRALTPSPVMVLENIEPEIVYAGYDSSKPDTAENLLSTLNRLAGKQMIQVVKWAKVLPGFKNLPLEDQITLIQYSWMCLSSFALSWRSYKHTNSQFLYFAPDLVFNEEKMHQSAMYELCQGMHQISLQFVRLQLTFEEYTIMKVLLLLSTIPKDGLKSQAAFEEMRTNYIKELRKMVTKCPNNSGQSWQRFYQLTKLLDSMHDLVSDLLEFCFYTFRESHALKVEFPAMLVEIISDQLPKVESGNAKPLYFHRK
CYP1A2, sequence (P05177 whole entry): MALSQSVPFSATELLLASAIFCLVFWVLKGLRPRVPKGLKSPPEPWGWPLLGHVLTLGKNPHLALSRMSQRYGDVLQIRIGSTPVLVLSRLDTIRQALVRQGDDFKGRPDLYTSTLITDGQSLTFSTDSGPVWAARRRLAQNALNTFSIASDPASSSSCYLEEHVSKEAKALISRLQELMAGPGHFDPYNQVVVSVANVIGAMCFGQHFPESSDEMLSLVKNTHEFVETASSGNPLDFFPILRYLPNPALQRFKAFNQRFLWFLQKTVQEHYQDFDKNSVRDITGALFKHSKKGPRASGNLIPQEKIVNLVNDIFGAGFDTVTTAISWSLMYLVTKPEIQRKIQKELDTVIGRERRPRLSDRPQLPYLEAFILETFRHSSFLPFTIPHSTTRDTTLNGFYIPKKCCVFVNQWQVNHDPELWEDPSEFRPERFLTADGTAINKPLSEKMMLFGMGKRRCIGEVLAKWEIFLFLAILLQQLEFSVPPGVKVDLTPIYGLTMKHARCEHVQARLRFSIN
Glucocorticoid receptor (Homo sapiens), sequence (P04150 whole entry): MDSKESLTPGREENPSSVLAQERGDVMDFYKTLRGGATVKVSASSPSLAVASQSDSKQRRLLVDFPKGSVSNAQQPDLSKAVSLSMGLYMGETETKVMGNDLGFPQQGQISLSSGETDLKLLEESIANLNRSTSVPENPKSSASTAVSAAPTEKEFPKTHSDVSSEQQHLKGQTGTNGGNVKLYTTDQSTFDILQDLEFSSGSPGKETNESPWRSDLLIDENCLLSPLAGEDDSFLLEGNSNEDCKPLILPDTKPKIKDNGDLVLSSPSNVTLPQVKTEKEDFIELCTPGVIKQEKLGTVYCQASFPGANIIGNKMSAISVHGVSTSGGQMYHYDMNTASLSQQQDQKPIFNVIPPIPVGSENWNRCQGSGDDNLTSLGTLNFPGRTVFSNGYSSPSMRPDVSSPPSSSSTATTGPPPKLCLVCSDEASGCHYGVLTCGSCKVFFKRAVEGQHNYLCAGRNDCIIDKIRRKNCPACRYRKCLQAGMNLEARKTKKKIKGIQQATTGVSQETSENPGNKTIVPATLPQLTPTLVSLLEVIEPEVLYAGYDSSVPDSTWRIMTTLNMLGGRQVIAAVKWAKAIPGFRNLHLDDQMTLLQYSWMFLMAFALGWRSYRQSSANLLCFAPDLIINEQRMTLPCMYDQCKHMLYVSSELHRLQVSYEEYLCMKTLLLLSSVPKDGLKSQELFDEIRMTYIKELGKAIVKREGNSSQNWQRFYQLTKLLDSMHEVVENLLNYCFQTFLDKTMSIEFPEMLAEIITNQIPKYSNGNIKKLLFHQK
11-beta-hydroxysteroid dehydrogenase 1 (Rattus norvegicus, UniProt P16232), sequence (P16232 whole entry): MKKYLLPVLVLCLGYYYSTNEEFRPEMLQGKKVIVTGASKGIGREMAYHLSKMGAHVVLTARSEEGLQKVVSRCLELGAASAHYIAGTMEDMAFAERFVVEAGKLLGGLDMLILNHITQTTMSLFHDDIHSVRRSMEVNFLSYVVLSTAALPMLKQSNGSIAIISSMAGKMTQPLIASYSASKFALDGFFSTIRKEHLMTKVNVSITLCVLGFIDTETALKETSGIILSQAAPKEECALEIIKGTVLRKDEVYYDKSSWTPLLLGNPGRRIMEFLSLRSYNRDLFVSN
17-beta-hydroxysteroid dehydrogenase type 1, sequence (P14061 whole entry): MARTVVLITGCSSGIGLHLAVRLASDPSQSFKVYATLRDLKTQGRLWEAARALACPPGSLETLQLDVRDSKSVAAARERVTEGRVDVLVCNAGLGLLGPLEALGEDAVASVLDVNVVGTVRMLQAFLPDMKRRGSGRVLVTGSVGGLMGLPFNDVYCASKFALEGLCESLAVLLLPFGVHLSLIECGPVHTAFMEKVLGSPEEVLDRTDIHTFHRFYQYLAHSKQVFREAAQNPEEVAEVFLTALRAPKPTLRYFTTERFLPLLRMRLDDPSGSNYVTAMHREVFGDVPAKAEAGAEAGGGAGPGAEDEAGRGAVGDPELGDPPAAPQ
CYP3A4, sequence (P08684 whole entry): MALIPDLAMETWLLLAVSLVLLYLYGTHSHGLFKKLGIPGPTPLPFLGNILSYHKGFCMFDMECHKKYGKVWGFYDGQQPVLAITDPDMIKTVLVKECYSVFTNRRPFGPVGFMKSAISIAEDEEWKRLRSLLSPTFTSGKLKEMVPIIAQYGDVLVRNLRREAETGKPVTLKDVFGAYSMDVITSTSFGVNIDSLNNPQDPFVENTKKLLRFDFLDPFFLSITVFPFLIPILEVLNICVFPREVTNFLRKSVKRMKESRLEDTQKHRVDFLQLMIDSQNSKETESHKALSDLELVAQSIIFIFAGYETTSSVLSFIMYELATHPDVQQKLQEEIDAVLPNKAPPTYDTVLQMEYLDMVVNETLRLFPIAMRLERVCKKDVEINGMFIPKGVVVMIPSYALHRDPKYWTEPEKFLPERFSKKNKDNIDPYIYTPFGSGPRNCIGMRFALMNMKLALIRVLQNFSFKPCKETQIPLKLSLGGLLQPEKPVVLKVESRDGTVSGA
11-beta-hydroxysteroid dehydrogenase type 2, sequence (P80365 whole entry): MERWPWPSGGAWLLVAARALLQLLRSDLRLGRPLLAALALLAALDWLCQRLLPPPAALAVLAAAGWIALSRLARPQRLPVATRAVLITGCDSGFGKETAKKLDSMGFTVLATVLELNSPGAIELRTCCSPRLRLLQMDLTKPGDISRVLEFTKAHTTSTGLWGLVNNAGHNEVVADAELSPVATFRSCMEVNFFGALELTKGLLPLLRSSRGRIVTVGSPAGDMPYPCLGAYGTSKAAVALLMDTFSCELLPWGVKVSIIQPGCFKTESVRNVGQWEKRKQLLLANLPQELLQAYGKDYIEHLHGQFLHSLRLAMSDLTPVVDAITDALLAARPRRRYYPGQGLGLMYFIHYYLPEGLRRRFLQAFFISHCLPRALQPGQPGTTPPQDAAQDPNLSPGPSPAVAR
CYP2C9, sequence (P11712 whole entry): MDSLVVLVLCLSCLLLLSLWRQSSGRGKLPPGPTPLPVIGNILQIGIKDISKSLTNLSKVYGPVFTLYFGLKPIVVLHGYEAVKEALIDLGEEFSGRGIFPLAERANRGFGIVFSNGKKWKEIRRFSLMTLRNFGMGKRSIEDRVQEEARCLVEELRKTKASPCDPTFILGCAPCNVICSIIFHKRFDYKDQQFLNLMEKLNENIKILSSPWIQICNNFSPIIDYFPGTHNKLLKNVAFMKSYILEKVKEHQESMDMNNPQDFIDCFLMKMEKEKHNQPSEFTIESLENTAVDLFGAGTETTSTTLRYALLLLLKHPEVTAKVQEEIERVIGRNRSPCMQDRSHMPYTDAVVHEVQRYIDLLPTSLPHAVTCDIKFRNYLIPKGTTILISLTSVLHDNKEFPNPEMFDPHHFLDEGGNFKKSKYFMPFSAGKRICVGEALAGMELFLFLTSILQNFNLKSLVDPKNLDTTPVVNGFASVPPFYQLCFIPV

For `CC(C)(C)c1c(C(=O)NC2C3CC4CC(C3)CC2C4)cnn1-c1ccc(C(=O)O)cc1` (stereo not drawn), the inhibition (Rattus norvegicus [1]) was “Active”, the inhibition in vivo at 3 mg/kg (Rattus norvegicus [2]) was 50% and the IC50 [3] was 2 nM. It also gave an IC50 [4] of 24 nM, an IC50 [5] of 8 nM and an IC50 [6] of 86 nM. For the same compound, the IC50 [7] was 6100 nM, the Activity (Cavia porcellus) was “Non-toxic” and the Activity (L5178Y) was “Non-toxic”. The inhibition [8] was “inactive”, the Activity (Salmonella typhimurium) was “Non-toxic” and the inhibition [9] was “inactive”. The inhibition [10] was < 5%, the IC50 [11] was > 30000 nM and the IC50 [12] was > 30000 nM. It also gave a Drug metabolism [13] of 0.2%, a Drug metabolism [14] of 80.1% and a Stability [15] of 99.4%. For the same compound, the Stability [16] was 10.8%, the Drug metabolism [17] was 5.8% and the Stability (Hepatocyte [18]) was 96%. The Stability [19] was 93.7%, the Stability (Hepatocyte [20]) was 95% and the Stability (Liver microsomes) was “Stable”. For the same compound, the CL (Rattus norvegicus [21]) was < 1%, the CL (Canis familiaris) was < 5% and the bioavailability [22] was 95%. For the same compound, the bioavailability [23] was 45%, the bioavailability [24] was 100% and the half-life [25] was 2.2 h. The half-life [26] was 4.9 h, the half-life [27] was 5.1 h and the half-life [28] was 5.8 h. The half-life [29] was 5.5 h, the Vd [30] was 0.1 L/kg and the half-life [31] was 0.8 h. It also gave a Vd [32] of 0.3 L/kg, a Vd [33] of 0.4 L/kg and a clearance [34] of 0.3 mL/min/kg. For the same compound, the clearance [35] was 9 mL/min/kg, the clearance [36] was 0.6 mL/min/kg and the Papp B→A at 10 µM [37] was 3.9 ×10⁻⁶ cm/s. It also gave a fraction unbound [38] of 0.014, a Papp A→B at 10 µM [39] of 7.3 ×10⁻⁶ cm/s and a fraction unbound [40] of 0.035. The fraction unbound [41] was 0.02, the inhibition at 10 µM (CYP2C9) was < 25% and the inhibition at 10 µM (CYP2C19) was < 25%. For the same compound, the inhibition at 10 µM (CYP2D6) was < 25%, the inhibition at 10 µM (CYP1A2) was < 25% and the bioavailability [42] was 95%. For the same compound, the inhibition at 10 µM (CYP3A4) was < 25%, the solubility at 24 h [43] was > 1900 µM and the hepatocyte CLint [44] was < 2 µL/min/1e6 cells. For the same compound, the fraction unbound [45] was 0.013, the logD [46] was 1 and the IC50 [47] was 9 nM. The clearance (in vivo) was 0.6 mL/min/kg.
